The text below walks through data of patent US20090318504A1, “Use of GAL3 receptor antagonists for the treatment of depression and/or anxiety and compounds useful in such methods” (priority 2001, published 2009).

Assay [1] concerns the target T1, human GAL1 receptor (Homo sapiens, UniProt P47211).
T1 construct: expressed in transfected cells; membranes
T1 sequence (P47211 1-349): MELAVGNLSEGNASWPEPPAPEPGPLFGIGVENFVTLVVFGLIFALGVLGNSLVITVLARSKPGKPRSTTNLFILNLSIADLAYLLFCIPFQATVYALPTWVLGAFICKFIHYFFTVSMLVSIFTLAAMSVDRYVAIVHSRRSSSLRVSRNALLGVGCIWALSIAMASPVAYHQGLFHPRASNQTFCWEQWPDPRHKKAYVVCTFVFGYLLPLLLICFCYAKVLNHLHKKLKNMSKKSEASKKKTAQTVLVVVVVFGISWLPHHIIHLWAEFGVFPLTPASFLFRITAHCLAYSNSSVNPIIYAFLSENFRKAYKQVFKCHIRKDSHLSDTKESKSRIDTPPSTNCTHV
As to the kind of experiment: Radioligand binding at cloned human GAL1 receptor. To be noted: pyrimidines, read-out: Ki GalR1. The source says: (§1) In order to test compounds for selective binding to the human GAL3 receptor the cloned cDNAs encoding both the human and rat GALL and GAL2 receptors have been used. The cloning and assay methods for the human and rat GAL1 receptors may be found in PCT International Publication No. WO 95/22608, the contents of which are hereby incorporated by reference. The cloning and assay methods for the human and rat GAL2 receptors may be found in PCT International Publication No. WO 97/26853, the contents of which are hereby incorporated by reference.
(§2) The present invention provides for a method of determining the binding affinity of a GAL3 antagonist, wherein the GAL3 antagonist is dissolved in a “suitable solvent”. A “suitable solvent” means one which permits the measurement of binding affinity of the GAL3 antagonist to the human GAL3 receptor at concentrations less than 1 μM, preferably less than 100 nM. Examples of solvents include, but are not limited to, DMSO, ethanol, N,N-dimethylacetamide, or water. For indolones, the preferred solvent is 3% DMSO (final concentration in the assay). For pyrimidines, the preferred solvent is 1% ethanol/0.09% polypuronic acid F-127 (final concentration in the assay). For any other type of compounds, the preferred solvent is the solvent which permits the measurement of binding affinity of a GAL3 antagonist at the lowest concentration. Once a suitable solvent is ascertained for the binding assay of the human GAL3 receptor, the same solvent is used in assays to determine the binding affinity at the GAL1 receptor, the serotonin transporter, the norepinephrine transporter, and the dopamine transporter. A solvent of 0.4% DMSO is used in the central monoamine oxidase enzyme assay.
(§3) The binding properties of the pyrimidines of the present invention were evaluated at the cloned human galanin receptors, GAL1, GAL2, and GAL3, using protocols described herein.
(§4) The binding properties of the indolones of the present invention were evaluated at the cloned human galanin receptors, GAL1, GAL2, and GAL3, using protocols described herein.
(§5) LM(tk−) cells were stably transfected with the human GALL or GAL3 receptor. CHO cells were stably transfected with the human GAL2 receptor.
(§6) cDNAs for the human and rat GAL1, and human and rat GAL3 receptors were transfected with a G-418 resistant gene into the mouse fibroblast LM(tk−) cell line by a calcium phosphate transfection method (Cullen, 1987). Stably transfected cells were selected with G-418. Human and rat GAL2 receptors were similarly transfected into CHO cells.
Membranes were harvested from stably transfected LM(tk−) cells. […] Protein concentration was measured by the Bradford method (Bradford, 1976) using Bio-Rad Reagent, with bovine serum albumin as a standard. […]

The target in assay [2] is T2, human GAL2 receptor (Homo sapiens, UniProt O43603).
T2 construct: expressed in transfected cells; membranes
T2 sequence (O43603 1-387): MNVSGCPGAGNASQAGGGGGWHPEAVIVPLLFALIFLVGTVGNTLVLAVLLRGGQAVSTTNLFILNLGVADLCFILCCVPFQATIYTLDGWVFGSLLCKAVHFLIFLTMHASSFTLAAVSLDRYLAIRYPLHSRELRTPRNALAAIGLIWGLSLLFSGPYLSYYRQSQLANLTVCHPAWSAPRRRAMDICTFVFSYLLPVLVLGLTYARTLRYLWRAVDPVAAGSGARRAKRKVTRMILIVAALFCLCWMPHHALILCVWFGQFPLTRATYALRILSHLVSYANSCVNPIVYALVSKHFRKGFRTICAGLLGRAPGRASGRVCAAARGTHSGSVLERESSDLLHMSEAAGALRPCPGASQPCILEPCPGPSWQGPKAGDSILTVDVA
In words: Radioligand binding at cloned human GAL2 receptor. The note with it: pyrimidines, read-out: Ki GalR2.
Source text: as §1, §2, §3, §4, §5, §6
Membranes were harvested from stably transfected LM(tk−) cells. Adherent cells were washed twice in ice-cold phosphate buffered saline (138 mM NaCl, 8.1 mM Na2HPO4, 2.5 mM KCl, 1.2 mM KH2PO4, 0.9 mM CaCl2, 0.5 mM MgCl2, pH 7.4) and lysed by sonication in ice-cold sonication buffer (20 mM Tris-HCl, 5 mM EDTA, pH 7.7). Large particles and debris were cleared by low speed centrifugation (200×g, 5 min, 4° C.). Membranes were collected from the supernatant fraction by centrifugation (32,000×g, 18 min, 4° C.), washed with ice-cold hypotonic buffer, and collected again by centrifugation (32,000×g, 18 min, 4° C.). The final membrane pellet was resuspended by sonication into a small volume of ice-cold binding buffer (~1 ml for every 5 plates: 10 mM NaCl, 20 mM HEPES, 0.22 mM KH2PO4, 1.26 mM CaCl2, 0.81 mM MgSO4, pH 7.4). Protein concentration was measured by the Bradford method (Bradford, 1976) using Bio-Rad Reagent, with bovine serum albumin as a standard. […]

The target in assay [3] is T3, human GAL3 receptor (Homo sapiens, UniProt O60755).
T3 construct: expressed in transfected cells; membranes
T3 sequence (O60755 1-368): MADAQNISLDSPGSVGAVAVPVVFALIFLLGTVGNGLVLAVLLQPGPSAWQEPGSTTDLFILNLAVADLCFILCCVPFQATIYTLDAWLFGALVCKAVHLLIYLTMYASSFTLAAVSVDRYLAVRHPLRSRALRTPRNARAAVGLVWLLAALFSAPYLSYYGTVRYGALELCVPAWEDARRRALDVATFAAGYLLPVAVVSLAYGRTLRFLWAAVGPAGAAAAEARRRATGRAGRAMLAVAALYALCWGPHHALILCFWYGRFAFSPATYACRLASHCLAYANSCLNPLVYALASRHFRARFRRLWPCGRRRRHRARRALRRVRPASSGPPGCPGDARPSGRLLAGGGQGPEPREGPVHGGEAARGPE
As to the kind of experiment: Radioligand binding at cloned human GAL3 receptor. The note with it: for Ki: pyrimidines, cloned human receptor, read-out: Ki GalR3. Here is the method:
as §2, §3, §4, §5, §6
Membranes were harvested from stably transfected LM(tk−) cells. Adherent cells were washed twice in ice-cold phosphate buffered saline (138 mM NaCl, 8.1 mM Na2HPO4, 2.5 mM KCl, 1.2 mM KH2PO4, 0.9 mM CaCl2, 0.5 mM MgCl2, pH 7.4) and lysed by sonication in ice-cold sonication buffer (20 mM Tris-HCl, 5 mM EDTA, pH 7.7). Large particles and debris were cleared by low speed centrifugation (200×g, 5 min, 4° C.). Membranes were collected from the supernatant fraction by centrifugation (32,000×g, 18 min, 4° C.), washed with ice-cold hypotonic buffer, and collected again by centrifugation (32,000×g, 18 min, 4° C.). The final membrane pellet was resuspended by sonication into a small volume of ice-cold binding buffer (~1 ml for every 5 plates: 10 mM NaCl, 20 mM HEPES, 0.22 mM KH2PO4, 1.26 mM CaCl2, 0.81 mM MgSO4, pH 7.4). Protein concentration was measured by the Bradford method (Bradford, 1976) using Bio-Rad Reagent, with bovine serum albumin as a standard. Membranes were held on ice for up to one hour and used fresh, or flash frozen and stored in liquid nitrogen. Membranes were prepared similarly from CHO cells.
Galanin Receptors Binding assays were performed according to the following published methods: human GAL3 (PCT International Publication No. WO 98/15570), human GAL1 (PCT International Publication No. WO 95/2260), human GAL2 (PCT International Publication No. WO 97/26853).
Binding data were analyzed using nonlinear regression and statistical techniques available in the GraphPAD Prism package (San Diego, Calif.). Enzymatic assay data were derived from a standard curve of reference compound data.
The selectivity ratios for compounds of the claimed invention were calculated from the binding data presented in Tables 1-4, Table 7 and Table 9 of the subject application. […]

Assay [4] addresses norepinephrine transporter (Rattus norvegicus, UniProt Q9WTR4). As to the kind of experiment: Binding at native NE transporter. The note with it: rNE Uptk. Here is the method:
The binding properties of the compounds of the present invention were evaluated at one or more cloned receptors or native, tissue-derived transporters, using protocols described below.
The methods to determine binding affinity at native transporters are described in the following publications: 5HT transporter and NE transporter (Owens et al., 1997), and DA transporter (Javitch et al, 1984).

For assay [5], the system named is male Sprague-Dawley rats. As to the kind of experiment: Rat Forced Swim Test (FST). Type of assay: in vivo. The note with it: for Overall profile in the Forced Swim Test: conclusion of the study, male Sprague-Dawley rats.
Assay [6] relates to male Sprague-Dawley rats. In words: Rat Social Interaction Test (SIT). Type of assay: in vivo.
In assay [7] the test system is male Sprague-Dawley rats. The note with it: ex vivo data (Leonard, 1996); cited from earlier work.
[8] abbreviates: rat FST, single p.o. administration, 10 mg/kg, 1 hr before test, listed as Flu0x, 10 mg/kg.

Molecules are shown by their SMILES.

`Cc1ccc(N(c2ccc(C)cc2)c2cc(N3CCCCC3)nc(N)n2)cc1` [Example 4]: the inhibitory constant (Ki) in assay [1] was > 5 µM; in assay [2], > 5 µM; in assay [3], 0.627 µM.

In the case of `Cc1ccc(Nc2cc(N3CCCCC3)nc(N(C)CCc3c[nH]c4ccccc34)n2)cc1` [Example 11], the Ki in assay [4] is > 50 µM.

`CN(CCc1c[nH]c2ccccc12)c1nc(Nc2ccc(F)c(F)c2)cc(N2CCCCC2)n1` [Example 15]: in assay [4], the inhibition constant (Ki) is > 50 µM.

`COCCN(c1ccc(C)cc1)c1cc(N2CCCCC2)nc(NCCc2c[nH]c3ccccc23)n1` [Example 19]: the inhibition constant Ki in assay [1] is > 5 µM; in assay [2], 1.77 µM; in assay [3] it was 0.079 µM.

The compound `Cc1ccc(Nc2cc(N3CCCCC3)nc(N(C)CCc3ccccc3)n2)cc1` [Example 22] returned an inhibition constant (Ki) in assay [4] of 13.1 µM. In assay [5], the “Overall profile in the Forced Swim Test” value is reported as “has antidepressant properties”.

Turning to `Cc1ccc(Nc2cc(N3CCCCC3)nc(N3CCN(c4ncccc4C(F)(F)F)CC3)n2)cc1` [Example 34], the “GAL3/GAL1 binding ratio (Ki GAL1 divided by Ki GAL3)” value in assay [3] is 39 fold. The Ki in assay [4] was > 50 µM. In assay [5], the “Overall profile in the Forced Swim Test” value was “produces an effect in the FST that resembles that of antidepressants”. In addition, in assay [5] (rat FST, single p.o. administration, 10 mg/kg, 1 hr before test, 10 mg/kg), the Immobility result is recorded as “not significantly decrease in immobility”. Further, the Rearing in assay [6] (SIT, single p.o., 0.03 mg/kg) stood at 27 ± 3. In addition, the “Overall profile in the Social Interaction Test” value in assay [6] (conclusion of the study, male rats) is “produces an anxioltyic action in the social interaction test”.

Regarding `CN(C)c1cc(N)nc(N(c2ccccc2)c2ccc(Cl)cc2)n1` [Example 58], the Ki in assay [1] is > 5 µM; in assay [2] it was > 5 µM; in assay [3], 0.783 µM.

Regarding `Cc1ccc(Nc2cc(N(C)C)nc(N3CCc4ccccc43)n2)cc1` [Example 75], in assay [2], the inhibition constant Ki was 0.245 µM.

Consider `CN(C)c1cc(Nc2ccc3ccccc3c2)nc(N(C)CCc2c[nH]c3ccccc23)n1` [Example 79], for which the values for the Ki in assay [1], in assay [2] and in assay [3] were 3.8 µM, 1.66 µM and 0.19 µM, respectively.

With `O=C1C(=Nc2ccc(C(F)(F)F)cc2)c2ccccc2N1c1ccccc1` [Example 95, 1-PHENYL-3-[[4-(TRIFLUOROMETHYL)PHENYL]IMINO]-1,3-DIHYDRO-2H-INDOL-2-ONE], in assay [5], the “Overall profile in the Forced Swim Test” value is “does not produce antidepressant-like actions in the forced swim test”.

For `O=C1C(=Nc2ccc(Br)cc2)c2ccccc2N1c1ccccc1` [Example 98, 3-[(4-BROMOPHENYL)IMINO]-1-PHENYL-1,3-DIHYDRO-2H-INDOL-2-ONE], the “Overall profile in the Forced Swim Test” value in assay [5] was “produces a profile in the modified Lucki version of the FST resembling that of the clinically established antidepressant fluoxetine”. For the same compound, the Climbing entry in assay [5] (rat FST, single p.o. administration, 3 mg/kg, 1 hr before test, 3 mg/kg) is given as “significantly greater increase in climbing compared to 30 mg/kg of Example 98”.

Consider `O=C1C(=Nc2cc(Cl)cc(Cl)c2)c2ccccc2N1c1ccccc1` [Example 103, 3-[(3,5-DICHLOROPHENYL)IMINO]-1-PHENYL-1,3-DIHYDRO-2H-INDOL-2-ONE], for which the “Overall profile in the Forced Swim Test” value in assay [5] is listed as “has antidepressant properties”.

Consider `CN(C)c1cc(Nc2ccc(Cl)c(Cl)c2)nc(N2CCN(Cc3ccccc3)CC2)n1` [Example 151], for which the “Overall profile in the Forced Swim Test” value in assay [5] was “produces behavioral effects in the FST in rats that resemble those of antidepressants”.

For the compound `Cc1ccc(Nc2cc(N(C)C)nc(N3CCN(c4ncccc4C#N)CC3)n2)cc1` [Example 241], in assay [3], the inhibition constant (Ki) was 0.216 µM.

For `O=C1/C(=N\c2ccc(Cl)c(Cl)c2)c2ccccc2N1c1ccsc1` [Example 272, (3Z)-3-[(3,4-DICHLOROPHENYL)IMINO]-1-(3-THIENYL)-1,3-DIHYDRO-2H-INDOL-2-ONE], the “Overall profile in the Forced Swim Test” value in assay [5] is listed as “has the profile of an antidepressant”.

Regarding `CNCCC(Oc1ccc(C(F)(F)F)cc1)c1ccccc1` (stereo not drawn) [Fluoxetine, fluoxetine, reference compound], in assay [5] (setting [8]), the Climbing was determined as 4.5 ± 1.2 counts and the Diving is on record as 1.0 ± 0.8 counts. Further, in assay [7], the “p.o. dose required to inhibit 5-HT uptake in the CNS by 50%” value is reported as 7 mg/kg.

The Ki is the dissociation constant of the complex between target and ligand, obtained from inhibition or displacement.
